# Experimental data from ChEMBL document CHEMBL1201862, “PubChem BioAssay data set” (2004).
#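 In this assay, cells in 96-well plates receive the compound at five concentrations for 48 hours. Endpoints are linearly interpolated between the surrounding concentrations. The concentration for 50% growth inhibition is given as GI50.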 Calls of active or inactive are those of the source. Cut-off read from the data, not from the text of the source: active = GI50 up to about 1.1 µM and inactive = higher.
# Assays:
# Test in all cases: NCI tumour cell line growth inhibition, 48 h
# CCRF-CEM = tested on: CCRF-CEM
# K562 = tested on: K562
# NCI/ADR-RES = tested on: NCI/ADR-RES
# MDA-MB-231 = tested on: MDA-MB-231
# NCI-H522 = tested on: NCI-H522
# A549 = tested on: A549
# SR = tested on: SR
# MDA-MB-435 = tested on: MDA-MB-435
# SNB-19 = tested on: SNB-19
# OVCAR-4 = tested on: OVCAR-4
# HL-60 = tested on: HL-60
# 786-0 = tested on: 786-0
# MOLT-4 = tested on: MOLT-4
# SF-539 = tested on: SF-539
# OVCAR-5 = tested on: OVCAR-5
# UACC-257 = tested on: UACC-257
# SK-OV-3 = tested on: SK-OV-3
# UACC-62 = tested on: UACC-62
# LOX IMVI = tested on: LOX IMVI
Compound,GI50 (CCRF-CEM),GI50 (K562),GI50 (NCI/ADR-RES),GI50 (MDA-MB-231),GI50 (NCI-H522),GI50 (A549),GI50 (SR),GI50 (MDA-MB-435),GI50 (SNB-19),GI50 (OVCAR-4),GI50 (HL-60),GI50 (786-0),GI50 (MOLT-4),GI50 (SF-539),GI50 (OVCAR-5),GI50 (UACC-257),GI50 (SK-OV-3),GI50 (UACC-62),GI50 (LOX IMVI)
O=C1C2C=CC1C1C(=O)OC(=O)C21 (configuration not stated),> 100 µM (inactive),> 100 µM (inactive),> 100 µM (inactive),> 100 µM (inactive),> 100 µM (inactive),> 100 µM (inactive),> 100 µM (inactive),> 100 µM (inactive),> 100 µM (inactive),> 100 µM (inactive),> 100 µM (inactive),> 100 µM (inactive),> 100 µM (inactive),> 100 µM (inactive),> 100 µM (inactive),> 100 µM (inactive),> 100 µM (inactive),> 100 µM (inactive),> 100 µM (inactive)
NS(=O)(=O)c1nnc(/N=C(/CCC(=O)O)C(=O)O)s1,> 100 µM (inactive),> 100 µM (inactive),> 100 µM (inactive),> 100 µM (inactive),> 100 µM (inactive),> 100 µM (inactive),> 100 µM (inactive),> 100 µM (inactive),> 100 µM (inactive),> 100 µM (inactive),> 100 µM (inactive),> 100 µM (inactive),> 100 µM (inactive),> 100 µM (inactive),> 100 µM (inactive),> 100 µM (inactive),> 100 µM (inactive),> 100 µM (inactive),> 100 µM (inactive)
COc1ccc(OC)c(Cc2cnc3nc(N)nc(N)c3c2C)c1 [PIRITREXIM ISETHIONATE],< 0.0198 µM (active),< 0.01 µM (active),0.989 µM (active),15.3 µM (inactive),0.204 µM (active),< 0.01 µM (active),0.03 µM (active),< 0.0435 µM (active),0.236 µM (active),13.2 µM (inactive),< 0.01 µM (active),< 0.0497 µM (active),< 0.0171 µM (active),0.291 µM (active),16.1 µM (inactive),13.9 µM (inactive),11.3 µM (inactive),0.853 µM (active),< 0.0142 µM (active)
C=C1c2nc3ccccc3n2C=C(c2ccccc2)N1c1ccc(Cl)cc1,> 100 µM (inactive),51.3 µM (inactive),23.6 µM (inactive),17.4 µM (inactive),11.5 µM (inactive),15.8 µM (inactive),64.7 µM (inactive),> 82.8 µM (inactive),46.1 µM (inactive),5.74 µM (inactive),> 100 µM (inactive),5.83 µM (inactive),> 100 µM (inactive),7.89 µM (inactive),21.7 µM (inactive),32.2 µM (inactive),27.3 µM (inactive),19.1 µM (inactive),45.8 µM (inactive)
CCC12CN(C(=O)OC)C3C(Br)C1CCC(=O)C32 (configuration not stated),> 100 µM (inactive),> 100 µM (inactive),> 100 µM (inactive),> 100 µM (inactive),84.1 µM (inactive),> 100 µM (inactive),> 100 µM (inactive),> 100 µM (inactive),> 100 µM (inactive),> 100 µM (inactive),> 100 µM (inactive),> 100 µM (inactive),> 100 µM (inactive),> 100 µM (inactive),> 100 µM (inactive),> 100 µM (inactive),> 100 µM (inactive),> 100 µM (inactive),> 100 µM (inactive)
COC(=O)C12C3C4C1C1C2C3C41C(=O)NC(C)(C)CC(=O)O (configuration not stated),> 100 µM (inactive),,> 100 µM (inactive),> 100 µM (inactive),> 100 µM (inactive),> 100 µM (inactive),> 100 µM (inactive),> 100 µM (inactive),> 100 µM (inactive),> 100 µM (inactive),> 100 µM (inactive),> 100 µM (inactive),> 100 µM (inactive),> 100 µM (inactive),> 100 µM (inactive),> 100 µM (inactive),,> 100 µM (inactive),> 100 µM (inactive)
COc1ccc(C(OCC2OC(n3cc(C)c(=O)[nH]c3=O)CC2n2cc(Cn3cc(I)c(=O)[nH]c3=O)nn2)(c2ccccc2)c2ccccc2)cc1 (configuration not stated),11.2 µM (inactive),,> 100 µM (inactive),> 100 µM (inactive),> 100 µM (inactive),> 100 µM (inactive),> 100 µM (inactive),> 100 µM (inactive),> 100 µM (inactive),> 100 µM (inactive),1.58 µM (inactive),> 100 µM (inactive),7.67 µM (inactive),> 100 µM (inactive),> 100 µM (inactive),> 100 µM (inactive),> 100 µM (inactive),> 100 µM (inactive),> 100 µM (inactive)
O=C(c1ccccc1)c1ccc2[nH]c(-c3c(Cl)c(Cl)c(Cl)c(Cl)c3C(=O)N/N=C/c3cccc(Oc4ccccc4)c3)nc2c1,39.6 µM (inactive),46.5 µM (inactive),95.1 µM (inactive),> 100 µM (inactive),45 µM (inactive),> 100 µM (inactive),36.3 µM (inactive),38.1 µM (inactive),69.2 µM (inactive),99.3 µM (inactive),17.6 µM (inactive),> 100 µM (inactive),50.4 µM (inactive),> 100 µM (inactive),> 100 µM (inactive),> 100 µM (inactive),> 100 µM (inactive),,> 100 µM (inactive)
CNS(=O)(=O)c1ccccc1C(=N)c1ccccc1,> 100 µM (inactive),> 100 µM (inactive),> 100 µM (inactive),> 100 µM (inactive),> 100 µM (inactive),> 100 µM (inactive),> 100 µM (inactive),> 100 µM (inactive),> 100 µM (inactive),> 100 µM (inactive),> 100 µM (inactive),> 100 µM (inactive),> 100 µM (inactive),> 100 µM (inactive),> 100 µM (inactive),,> 100 µM (inactive),> 100 µM (inactive),> 100 µM (inactive)
CC1OC(O[C@H]2CC[C@]3(C)[C@H]4CC=C5[C@@H]6[C@@H](C)[C@H](C)CC[C@]6(C(=O)OC6OC(CO)C(O)C(O)C6O)CC[C@@]5(C(=O)O)[C@]4(C)CC[C@H]3C2(C)C)C(O)C(O)C1O (some centres not stated),> 100 µM (inactive),> 100 µM (inactive),> 100 µM (inactive),> 100 µM (inactive),> 100 µM (inactive),,> 100 µM (inactive),> 100 µM (inactive),> 100 µM (inactive),> 100 µM (inactive),> 100 µM (inactive),> 100 µM (inactive),> 100 µM (inactive),> 100 µM (inactive),> 100 µM (inactive),> 100 µM (inactive),> 100 µM (inactive),> 100 µM (inactive),> 100 µM (inactive)
[O-][n+]1cc(SCc2ccccc2)ncc1SCc1ccccc1,> 10 µM (inactive),> 10 µM (inactive),> 10 µM (inactive),> 10 µM (inactive),> 10 µM (inactive),> 10 µM (inactive),> 10 µM (inactive),> 10 µM (inactive),,> 10 µM (inactive),> 10 µM (inactive),> 10 µM (inactive),> 10 µM (inactive),> 10 µM (inactive),> 10 µM (inactive),> 10 µM (inactive),> 10 µM (inactive),> 10 µM (inactive),> 10 µM (inactive)
